Where a name gives a salt, the structure may show the parent alone.
Molecular target: T1, c-Raf kinase (Lck-activated c-Raf, Raf-1) (Homo sapiens, UniProt P04049)
T1 construct: GST-c-Raf (from amino acid 302 to amino acid 648); made in house; host or cells: Sf9 insect cells (baculovirus; co-infection with full-length Lck)
Experiment: c-Raf (Raf-1) biochemical assay (radioactive filtermat assay, MEK-1 substrate)
Conditions: at 1 micromolar compound; 5 μM ATP, 32° C., 1 hour
Experimental: Biological Tests c-Raf (Raf-1) Biochemical Assay Purification of Proteins Used in the Assay
The c-Raf biochemical assay was performed with a c-Raf enzyme that was activated (phosphorylated) by Lck kinase. Lck-activated c-Raf (Lck/c-Raf) was produced in Sf9 insect cells by co-infecting cells with baculoviruses expressing, under the control of the polyhedrin promoter, GST-c-Raf (from amino acid 302 to amino acid 648) and Lck (full-length). Both baculoviruses were used at the multiplicity of infection of 2.5 and the cells were harvested 48 hours post infection.
MEK-1 protein was produced in Sf9 insect cells by infecting cells with the baculovirus expressing GST-MEK-1 (full-length) fusion protein at the multiplicity of infection of 5 and harvesting the cells 48 hours post infection. Similar purification procedure was used for GST-c-Raf 302-648 and GST-MEK-1.
Transfected cells were suspended at 100 mg of wet cell biomass per mL in a buffer containing 10 mM sodium phosphate, 140 mM sodium chloride pH 7.3, 0.5% Triton X-100 and the protease inhibitor cocktail. The cells were disrupted with Polytron homogenizer and centrifuged 30,000 g for 30 minutes. The 30,000 g supernatant was applied onto GSH-Sepharose. The resin was washed with a buffer containing 50 mM Tris, pH 8.0, 150 mM NaCl and 0.01% Triton X-100. The GST-tagged proteins were eluted with a solution containing 100 mM Glutathione, 50 mM Tris, pH 8.0, 150 mM NaCl and 0.01% Triton X-100. The purified proteins were dialyzed into a buffer containing 20 mM Tris, pH 7.5, 150 mM NaCl and 20% Glycerol.
Biochemical Assay Protocol and Results
The compounds were serially diluted in DMSO using three-fold dilutions to stock concentrations ranging typically from 50 μM to 20 nM (final concentrations in the assay range from 1 μM to 0.4 nM). The c-Raf biochemical assay was performed as a radioactive filtermat assay in 96-well Costar polypropylene plates (Costar 3365). The plates were loaded with 75 μL solution containing 50 mM HEPES pH 7.5, 70 mM NaCl, 80 ng of Lck/c-Raf and 1 μg MEK-1. Subsequently, 2 μL of the serially diluted individual compounds were added to the reaction, prior to the addition of ATP. The reaction was initiated with 25 μL ATP solution containing 5 μM ATP and 0.3 μCi [33P]-ATP. The plates were sealed and incubated at 32° C. for 1 hour. The reaction was quenched with the addition of 50 μl of 4% Phosphoric Acid and harvested onto P30 filtermats (PerkinElmer) using a Wallac Tomtec Harvester. Filtermats were washed with 1% Phosphoric Acid first and deinonized H2O second. The filters were dried in a microwave, soaked in scintillation fluid and read in a Wallac 1205 Betaplate Counter (Wallac Inc., Atlanta, Ga., U.S.A.). The results were expressed as percent inhibition. % Inhibition=[[…]]×100 where • Tib=(counts per minute with inhibitor)−(background) • Ti=(counts per minute without inhibitor)−(background)

T1 sequence (P04049 302-648): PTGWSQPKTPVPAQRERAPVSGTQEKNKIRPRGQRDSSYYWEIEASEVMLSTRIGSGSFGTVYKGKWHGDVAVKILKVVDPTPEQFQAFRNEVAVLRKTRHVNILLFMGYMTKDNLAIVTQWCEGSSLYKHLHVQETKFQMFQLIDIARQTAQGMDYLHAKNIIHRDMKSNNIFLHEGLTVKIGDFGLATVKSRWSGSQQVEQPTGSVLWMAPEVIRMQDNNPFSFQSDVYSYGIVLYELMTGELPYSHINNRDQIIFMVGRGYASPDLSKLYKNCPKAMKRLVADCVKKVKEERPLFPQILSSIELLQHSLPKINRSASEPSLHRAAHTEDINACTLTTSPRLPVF

Compound: COC(=O)c1cc(Oc2cccc(NC(=O)Nc3ccc4c(cnn4C)c3)c2)ccn1 [Example 2, Methyl 4-[3-({[(1-methyl-1H-indazol-5-yl)amino]carbonyl}amino)phenoxy]-pyridine-2-carboxylate]
- inhibition at 1 µM: > 40%

Compound: CC(=O)c1cc(Oc2ccc(NC(=O)Nc3ccc4c(cnn4C)c3)cc2)ccn1 [Example 3, N-{4-[(2-acetylpyridin-4-yl)oxy]phenyl}-N′-(1-methyl-1H-indazol-5-yl)urea]
- inhibition at 1 µM: > 40%

Compound: CNC(=O)c1cc(Oc2ccc(NC(=O)Nc3ccc4nc(C)oc4c3)cc2)ccn1 [Example 6]
- inhibition at 1 µM: > 40%

Compound: CNC(=O)c1cc(Oc2ccc(NC(=O)Nc3cccc4c3CCC4)cc2)ccn1 [Example 7]
- inhibition at 1 µM: > 40%

Compound: CNC(=O)c1cc(Oc2ccc(NC(=O)Nc3ccc4nn(C)cc4c3)cc2)ccn1 [Example 9]
- inhibition at 1 µM: > 40%

Compound: CNC(=O)c1cc(Oc2ccc(NC(=O)Nc3ccc4c(c3)N(C(C)=O)CC4)cc2)ccn1 [Example 10]
- inhibition at 1 µM: > 40%

Compound: CNC(=O)c1cc(Oc2ccc(NC(=O)Nc3nc4ccc(Cl)cc4s3)cc2)ccn1 [Example 11]
- inhibition at 1 µM: > 40%

Compound: CNC(=O)c1cc(Oc2ccc(NC(=O)Nc3nc4ccc(OC(F)(F)F)cc4s3)cc2)ccn1 [Example 12]
- inhibition at 1 µM: > 40%

Compound: CNC(=O)c1cc(Oc2ccc(NC(=O)Nc3nc4ccc(F)cc4s3)cc2)ccn1 [Example 13]
- inhibition at 1 µM: > 40%

Compound: CNC(=O)c1cc(Oc2ccc(NC(=O)Nc3nc4ccc(OC)cc4s3)cc2)ccn1 [Example 14]
- inhibition at 1 µM: > 40%

Compound: CNC(=O)c1cc(Oc2ccc(NC(=O)Nc3ccc4[nH]c(C)cc4c3)cc2)ccn1 [Example 16]
- inhibition at 1 µM: > 40%

Compound: CNC(=O)c1cc(Oc2ccc(NC(=O)Nc3ccc4nccnc4c3)cc2)ccn1 [Example 17]
- inhibition at 1 µM: > 40%

Compound: CNC(=O)c1cc(Oc2ccc(NC(=O)Nc3ccc4c(c3)OC(F)(F)O4)cc2)ccn1 [Example 20]
- inhibition at 1 µM: > 40%

Compound: CNC(=O)c1cc(Oc2ccc(NC(=O)Nc3ccc4c(c3)CCC4=O)cc2)ccn1 [Example 22]
- inhibition at 1 µM: > 40%

Compound: CNC(=O)c1cc(Oc2ccc(NC(=O)Nc3ccc4cnn(C)c4c3)cc2)ccn1 [Example 24]
- inhibition at 1 µM: > 40%

Compound: CNC(=O)c1cc(Oc2ccc(NC(=O)Nc3ccc4[nH]nnc4c3)cc2)ccn1 [Example 26]
- inhibition at 1 µM: > 40%

Compound: CNC(=O)c1cc(Oc2ccc(NC(=O)Nc3ccc4cn[nH]c4c3)cc2)ccn1 [Example 27]
- inhibition at 1 µM: > 40%

Compound: CNC(=O)c1cc(Oc2ccc(NC(=O)Nc3ccc4[nH]c(C(F)(F)F)nc4c3)cc2)ccn1 [Example 28]
- inhibition at 1 µM: > 40%

Compound: CCn1c(C)nc2cc(NC(=O)Nc3ccc(Oc4ccnc(C(=O)NC)c4)cc3)ccc21 [Example 29]
- inhibition at 1 µM: > 40%

Compound: CNC(=O)c1cc(Oc2ccc(NC(=O)Nc3ccc4c(c3)CCN4S(C)(=O)=O)cc2)ccn1 [Example 31]
- inhibition at 1 µM: > 40%

Compound: CNC(=O)c1cc(Oc2cccc(NC(=O)Nc3ccc4[nH]nnc4c3)c2)ccn1 [Example 37]
- inhibition at 1 µM: > 40%

Compound: CCN(CC)CCn1ccc2cc(NC(=O)Nc3ccc(Oc4ccnc(C(=O)NC)c4)cc3F)ccc21 [Example 44]
- inhibition at 1 µM: > 40%

Compound: CCN(CC)CCn1ncc2cc(NC(=O)Nc3ccc(Oc4ccnc(C(=O)NC)c4)cc3F)ccc21 [Example 45]
- inhibition at 1 µM: > 40%

Compound: CNC(=O)c1cc(Oc2ccc(NC(=O)Nc3ccc4c(c3)OC(F)(F)C(F)(F)O4)c(C(F)(F)F)c2)ccn1 [Example 64]
- inhibition at 1 µM: > 40%

Compound: CNC(=O)c1cc(Oc2ccc(NC(=O)Nc3ccc4sc(C)nc4c3)c(C(F)(F)F)c2)ccn1 [Example 65]
- inhibition at 1 µM: > 40%

Compound: CNC(=O)c1cc(COc2ccc(NC(=O)Nc3ccc4c(cnn4C)c3)cc2)ccn1 [Example 88]
- inhibition at 1 µM: > 40%

Compound: CNC(=O)c1cc(COc2cccc(NC(=O)Nc3ccc4c(cnn4C)c3)c2)ccn1 [Example 89]
- inhibition at 1 µM: > 40%

Compound: Cc1nc2cc(NC(=O)Nc3ccc(Oc4ccnc(C(N)=O)c4)cc3)ccc2s1 [Example 91]
- inhibition at 1 µM: > 40%

Compound: NC(=O)c1cc(Oc2ccc(NC(=O)Nc3ccc4c(c3)CCC4)c(Cl)c2)ccn1 [Example 95]
- inhibition at 1 µM: > 40%

Compound: COC(=O)c1cc(Oc2ccc(NC(=O)Nc3ccc4c(cnn4C)c3)cc2)ccn1 [Example 98]
- inhibition at 1 µM: > 40%

Compound: COCCNC(=O)c1cc(Oc2ccc(NC(=O)Nc3ccc4c(cnn4C)c3)c(F)c2)ccn1 [Example 99]
- inhibition at 1 µM: > 40%

Compound: CN(C)C(=O)CNC(=O)c1cc(Oc2ccc(NC(=O)Nc3ccc4c(cnn4C)c3)cc2)ccn1 [Example 100]
- inhibition at 1 µM: > 40%

Compound: CNC(=O)c1cc(Oc2ccc(NC(=O)Nc3nc4ccc([N+](=O)[O-])cc4s3)cc2)ccn1 [Example 102]
- inhibition at 1 µM: > 40%

Compound: CNC(=O)c1cc(Oc2ccc(NC(=O)Nc3nc4c(F)cc(F)cc4s3)cc2)ccn1 [Example 103]
- inhibition at 1 µM: > 40%

Compound: COC(=O)c1cc(Oc2cccc(NC(=O)Nc3ccc4c(c3)C(F)(F)OC(F)(F)O4)c2)ccn1 [Example 105, Methyl 4-[3-({[(2,2,4,4-tetrafluoro-4H-1,3-benzodioxin-6-yl)amino]-carbonyl}amino)phenoxy]pyridine-2-carboxylate]
- inhibition at 1 µM: > 40%

Compound: CNC(=O)c1cc(Oc2cccc(NC(=O)Nc3ccc4[nH]ncc4c3)c2)ccn1 [Example 108, 4-(3-{[(1H-indazol-5-ylamino)carbonyl]amino}phenoxy)-N-methylpyridine-2-carboxamide dihydrochloride]
- inhibition at 1 µM: > 40%

Compound: CNC(=O)c1cc(Oc2ccc(NC(=O)Nc3ccc4c(c3)C(F)(F)OC(F)(F)O4)cc2Cl)ccn1 [Example 115]
- inhibition at 1 µM: > 40%

Compound: CNC(=O)c1cc(Oc2cccc(NC(=O)Nc3ccc4c(c3)C(F)(F)OC(F)(F)O4)c2)ccn1 [Example 117]
- inhibition at 1 µM: > 40%

Compound: COC(=O)c1cncc(Oc2ccc(NC(=O)Nc3ccc4c(c3)C(F)(F)OC(F)(F)O4)cc2)c1 [Example 122]
- inhibition at 1 µM: > 40%

Compound: CNC(=O)c1cc(Oc2ccc(NC(=O)Nc3cccc4c3OC(F)(F)C(F)(F)O4)cc2)ccn1 [Example 132]
- inhibition at 1 µM: > 40%

Compound: CNC(=O)c1cc(Oc2ccc(NC(=O)Nc3ccc4c(c3)OCO4)cc2)ccn1 [Example 135]
- inhibition at 1 µM: > 40%

Compound: O=C(Nc1ccc(Oc2ccnc(C(=O)NCCCn3ccnc3)c2)cc1)Nc1ccc2c(c1)C(F)(F)OC(F)(F)O2 [Example 145, N-[3-(1H-imidazol-1-yl)propyl]-4-[4-({[(2,2,4,4-tetrafluoro-4H-1,3-benzodioxin-6-yl)amino]carbonyl}amino)phenoxy]pyridine-2-carboxamide]
- inhibition at 1 µM: > 40%

Compound: O=C(Nc1ccc(Oc2ccnc(C(=O)NCCN3CCCC3)c2)cc1)Nc1ccc2c(c1)C(F)(F)OC(F)(F)O2 [Example 146, N-(2-pyrrolidin-1-ylethyl)4-[4-({[(2,2,4,4-tetrafluoro-4H-1,3-benzodioxin-6-yl)-amino]carbonyl}amino)phenoxy]pyridine-2-carboxamide]
- inhibition at 1 µM: > 40%

Compound: Cn1ncc2cc(NC(=O)Nc3ccc(Oc4ccnc(C(=O)NC5CC5)c4)cc3)ccc21 [Example 147, N-cyclopropyl-4-[4-({[(1-methyl-1H-indazol-5-yl)amino]-carbonyl}amino)phenoxy]pyridine-2-carboxamide]
- inhibition at 1 µM: > 40%

Compound: Cn1ncc2cc(NC(=O)Nc3cccc(Oc4ccnc(C(=O)NCCN5CCCCC5)c4)c3)ccc21 [Example 148, 4-[3-({[(1-methyl-1H-indazol-5-yl)amino]carbonyl}amino)phenoxy]-N-(2-piperidin-1-ylethyl)pyridine-2-carboxamide]
- inhibition at 1 µM: > 40%

Compound: NC(=O)c1cc(Oc2cc(F)c(NC(=O)Nc3ccc4c(c3)C(F)(F)OC(F)(F)O4)c(F)c2)ccn1 [Example 150, 4-[3,5-difluoro-4-({[(2,2,4,4-tetrafluoro-4H-1,3-benzodioxin-6-yl)amino]-carbonyl}amino)phenoxy]pyridine-2-carboxamide]
- inhibition at 1 µM: > 40%

Compound: O=C(Nc1ccc(Oc2ccnc(C(=O)NCCN3CCCCC3)c2)cc1)Nc1ccc2c(c1)C(F)(F)OC(F)(F)O2 [Example 153]
- inhibition at 1 µM: > 40%

Compound: O=C(Nc1ccc(Oc2ccnc(C(=O)Nc3ccccn3)c2)cc1)Nc1ccc2c(c1)C(F)(F)OC(F)(F)O2 [Example 155]
- inhibition at 1 µM: > 40%
